Data published in patent US12077503B2, “Substituted cyclic amides and their use as herbicides” (FMC CORPORATION, priority 2015, dated 2024).

How the values were obtained:
Assay type in all cases: in vivo
[1] = test system: barnyardgrass (Echinochloa crus-galli); experiment: Test G Pre-Emergence Protocol; settings: Echinochloa crus-galli, pre-emergence, 312 h, evaluated after 13 days; for pest or weed control at 15.625 g/ha: 15.625 g ai/ha, read-out: Barnyard grass damage rating (100=total damage to plant; 0=no damage to plant); for pest or weed control at 62.5 g/ha: 62.5 g ai/ha, 100=total damage to plant, 0=no damage to plant, read-out: plant damage rating, Barnyardgrass; for pest or weed control at 250 g/ha: 250 g ai/ha, read-out: Barnyardgrass damage rating (100=total damage to plant; 0=no damage to plant)
Procedure, shortened: (§1)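 One day after sowing, pots are treated with a spray of test compound formulated in acetone/water 50:50 plus 0.5% Tween 20, giving 15.625, 62.5 or 250 g/ha. Evaluation on a 0–100 damage scale follows 13 days of glasshouse growth.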

[2] = test system: corn (Zea mays); experiment: Test G Pre-Emergence Protocol; settings: Zea mays, pre-emergence, 312 h, evaluated after 13 days; for plant injury at 15.625 g/ha: 15.625 g ai/ha; for plant injury at 15.625 g/ha / plant injury at 250 g/ha: read-out: Corn damage rating (100=total damage to plant; 0=no damage to plant); for plant injury at 62.5 g/ha: 62.5 g ai/ha, 100=total damage to plant, 0=no damage to plant, read-out: plant damage rating, Corn; for plant injury at 250 g/ha: 250 g ai/ha
Procedure, shortened: as §1

[3] = test system: giant foxtail (Setaria faberi); experiment: Test G Pre-Emergence Protocol; settings: Setaria faberi, pre-emergence, 312 h, evaluated after 13 days; for pest or weed control at 15.625 g/ha: 15.625 g ai/ha; for pest or weed control at 15.625 g/ha / pest or weed control at 250 g/ha: read-out: Foxtail, Giant damage rating (100=total damage to plant; 0=no damage to plant); for pest or weed control at 62.5 g/ha: 62.5 g ai/ha, 100=total damage to plant, 0=no damage to plant, read-out: plant damage rating, Foxtail, Giant; for pest or weed control at 250 g/ha: 250 g ai/ha
Procedure, shortened: as §1

[4] = test system: ivy-leaved morning glory (Ipomoea hederacea); experiment: Test G Pre-Emergence Protocol; settings: Ipomoea, pre-emergence, 312 h, evaluated after 13 days; for pest or weed control at 15.625 g/ha: 15.625 g ai/ha, read-out: Morning-glory, Ivy-leaved damage rating (100=total damage to plant; 0=no damage to plant); for pest or weed control at 62.5 g/ha: 62.5 g ai/ha, 100=total damage to plant, 0=no damage to plant, read-out: plant damage rating, Morningglory, Ivy-leaved; for pest or weed control at 250 g/ha: 250 g ai/ha, read-out: Morningglory, Ivy-leaved damage rating (100=total damage to plant; 0=no damage to plant)
Procedure, shortened: as §1

[5] = test system: redroot pigweed (Amaranthus retroflexus); experiment: Test G Pre-Emergence Protocol; settings: Amaranthus retroflexus, pre-emergence, 312 h, evaluated after 13 days; for pest or weed control at 15.625 g/ha: 15.625 g ai/ha; for pest or weed control at 15.625 g/ha / pest or weed control at 250 g/ha: read-out: Pigweed, Redroot damage rating (100=total damage to plant; 0=no damage to plant); for pest or weed control at 62.5 g/ha: 62.5 g ai/ha, 100=total damage to plant, 0=no damage to plant, read-out: plant damage rating, Pigweed, Redroot; for pest or weed control at 250 g/ha: 250 g ai/ha
Procedure, shortened: as §1

[6] = test system: velvetleaf (Abutilon theophrasti); experiment: Test G Pre-Emergence Protocol; settings: Abutilon theophrasti, pre-emergence, 312 h, evaluated after 13 days; for pest or weed control at 15.625 g/ha: 15.625 g ai/ha; for pest or weed control at 15.625 g/ha / pest or weed control at 250 g/ha: read-out: Velvetleaf damage rating (100=total damage to plant; 0=no damage to plant); for pest or weed control at 62.5 g/ha: 62.5 g ai/ha, 100=total damage to plant, 0=no damage to plant, read-out: plant damage rating, Velvetleaf; for pest or weed control at 250 g/ha: 250 g ai/ha
Procedure, shortened: as §1

[7] = test system: barnyardgrass (Echinochloa crus-galli); experiment: Test G Post-Emergence Protocol; settings: Echinochloa crus-galli, post-emergence, 312 h; for pest or weed control at 15.625 g/ha: 15.625 g ai/ha, evaluated after 13 days (100=total damage to plant; 0=no damage to plant), read-out: Barnyardgrass damage rating; for pest or weed control at 62.5 g/ha: 62.5 g ai/ha, read-out: Barnyardgrass damage rating (100=total damage to plant; 0=no damage to plant); for pest or weed control at 62.5 g/ha / pest or weed control at 250 g/ha: evaluated after 13 days; for pest or weed control at 250 g/ha: 250 g ai/ha, read-out: damage to plant, Barnyardgrass (100=total damage to plant; 0=no damage to plant)
Procedure, shortened: (§2)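 Post-emergence herbicidal damage, scored visually 0–100 at 13 days. Application at 15.625, 62.5 or 250 g/ha onto 8-day-old plants grown under glasshouse control.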

[8] = test system: corn (Zea mays); experiment: Test G Post-Emergence Protocol; settings: Zea mays, post-emergence, 312 h; for plant injury at 15.625 g/ha: 15.625 g ai/ha, evaluated after 13 days (100=total damage to plant; 0=no damage to plant), read-out: Corn damage rating; for plant injury at 62.5 g/ha: 62.5 g ai/ha, read-out: Corn damage rating (100=total damage to plant; 0=no damage to plant); for plant injury at 62.5 g/ha / plant injury at 250 g/ha: evaluated after 13 days; for plant injury at 250 g/ha: 250 g ai/ha, read-out: damage to plant, Corn (100=total damage to plant; 0=no damage to plant)
Procedure, shortened: as §2

[9] = test system: giant foxtail (Setaria faberi); experiment: Test G Post-Emergence Protocol; settings: Setaria faberi, post-emergence, 312 h; for pest or weed control at 15.625 g/ha: 15.625 g ai/ha, evaluated after 13 days (100=total damage to plant; 0=no damage to plant), read-out: Foxtail, Giant damage rating; for pest or weed control at 62.5 g/ha: 62.5 g ai/ha, read-out: Foxtail, Giant damage rating (100=total damage to plant; 0=no damage to plant); for pest or weed control at 62.5 g/ha / pest or weed control at 250 g/ha: evaluated after 13 days; for pest or weed control at 250 g/ha: 250 g ai/ha, read-out: damage to plant, Foxtail, Giant (100=total damage to plant; 0=no damage to plant)
Procedure, shortened: as §2

[10] = test system: ivy-leaved morning glory (Ipomoea hederacea); experiment: Test G Post-Emergence Protocol; settings: Ipomoea, post-emergence, 312 h; for pest or weed control at 15.625 g/ha: 15.625 g ai/ha, evaluated after 13 days (100=total damage to plant; 0=no damage to plant), read-out: Morningglory, Ivy-leaved damage rating; for pest or weed control at 62.5 g/ha: 62.5 g ai/ha, read-out: Morningglory, Ivy-leaved damage rating (100=total damage to plant; 0=no damage to plant); for pest or weed control at 62.5 g/ha / pest or weed control at 250 g/ha: evaluated after 13 days; for pest or weed control at 250 g/ha: 250 g ai/ha, read-out: damage to plant, Morningglory, Ivy-leaved (100=total damage to plant; 0=no damage to plant)
Procedure, shortened: as §2

[11] = test system: redroot pigweed (Amaranthus retroflexus); experiment: Test G Post-Emergence Protocol; settings: Amaranthus retroflexus, post-emergence, 312 h; for pest or weed control at 15.625 g/ha: 15.625 g ai/ha, evaluated after 13 days (100=total damage to plant; 0=no damage to plant), read-out: Pigweed, Redroot damage rating; for pest or weed control at 62.5 g/ha: 62.5 g ai/ha, read-out: Pigweed, Redroot damage rating (100=total damage to plant; 0=no damage to plant); for pest or weed control at 62.5 g/ha / pest or weed control at 250 g/ha: evaluated after 13 days; for pest or weed control at 250 g/ha: 250 g ai/ha, read-out: damage to plant, Pigweed, Redroot (100=total damage to plant; 0=no damage to plant)
Procedure, shortened: as §2

[12] = test system: velvetleaf (Abutilon theophrasti); experiment: Test G Post-Emergence Protocol; settings: Abutilon theophrasti, post-emergence, 312 h; for pest or weed control at 15.625 g/ha: 15.625 g ai/ha, evaluated after 13 days (100=total damage to plant; 0=no damage to plant), read-out: Velvetleaf damage rating; for pest or weed control at 62.5 g/ha: 62.5 g ai/ha, read-out: Velvetleaf damage rating (100=total damage to plant; 0=no damage to plant); for pest or weed control at 62.5 g/ha / pest or weed control at 250 g/ha: evaluated after 13 days; for pest or weed control at 250 g/ha: 250 g ai/ha, read-out: damage to plant, Velvetleaf (100=total damage to plant; 0=no damage to plant)
Procedure, shortened: as §2

Row | SMILES | pest or weed control at 15.625 g/ha [1] | pest or weed control at 62.5 g/ha [1] | pest or weed control at 250 g/ha [1] | plant injury at 15.625 g/ha [2] | plant injury at 62.5 g/ha [2] | plant injury at 250 g/ha [2] | pest or weed control at 15.625 g/ha [3] | pest or weed control at 62.5 g/ha [3] | pest or weed control at 250 g/ha [3] | pest or weed control at 15.625 g/ha [4] | pest or weed control at 62.5 g/ha [4] | pest or weed control at 250 g/ha [4] | pest or weed control at 15.625 g/ha [5] | pest or weed control at 62.5 g/ha [5] | pest or weed control at 250 g/ha [5] | pest or weed control at 15.625 g/ha [6] | pest or weed control at 62.5 g/ha [6] | pest or weed control at 250 g/ha [6] | pest or weed control at 15.625 g/ha [7] | pest or weed control at 62.5 g/ha [7] | also measured
1 | CN1C[C@H](c2ccc(C(C)(C)C)cc2)[C@@H](C(=O)Nc2ccccc2F)C1=O (racemic) [Compound 1409] | 0% | 0% | 10% | 0% | 0% | 0% | 0% | 0% | 40% | 0% | 0% | 0% | 0% | 0% | 0% | 0% | 0% | 0% | 0% | 10% | pest or weed control at 250 g/ha [7]: 30%; plant injury at 15.625 g/ha [8]: 0%; plant injury at 62.5 g/ha [8]: 0%; plant injury at 250 g/ha [8]: 10%; pest or weed control at 15.625 g/ha [9]: 0%; pest or weed control at 62.5 g/ha [9]: 0%; pest or weed control at 250 g/ha [9]: 40%; pest or weed control at 15.625 g/ha [10]: 0%; pest or weed control at 62.5 g/ha [10]: 0%; pest or weed control at 250 g/ha [10]: 0%; pest or weed control at 15.625 g/ha [11]: 0%; pest or weed control at 62.5 g/ha [11]: 0%; pest or weed control at 250 g/ha [11]: 10%; pest or weed control at 15.625 g/ha [12]: 0%; pest or weed control at 62.5 g/ha [12]: 0%; pest or weed control at 250 g/ha [12]: 10%
2 | Cc1ccc(NC(=O)[C@H]2C(=O)N(C)C[C@@H]2c2ccc(C(F)(F)F)cc2)c(C)c1 (racemic) [Compound 1410] | 0% | 0% | 20% | 0% | 0% | 0% | 0% | 0% | 80% | 0% | 0% | 10% | 0% | 20% | 10% | 0% | 10% | 20% | 0% | 0% | pest or weed control at 250 g/ha [7]: 20%; plant injury at 15.625 g/ha [8]: 0%; plant injury at 62.5 g/ha [8]: 0%; plant injury at 250 g/ha [8]: 10%; pest or weed control at 15.625 g/ha [9]: 0%; pest or weed control at 62.5 g/ha [9]: 0%; pest or weed control at 250 g/ha [9]: 50%; pest or weed control at 15.625 g/ha [10]: 0%; pest or weed control at 62.5 g/ha [10]: 0%; pest or weed control at 250 g/ha [10]: 20%; pest or weed control at 15.625 g/ha [11]: 0%; pest or weed control at 62.5 g/ha [11]: 0%; pest or weed control at 250 g/ha [11]: 10%; pest or weed control at 15.625 g/ha [12]: 0%; pest or weed control at 62.5 g/ha [12]: 0%; pest or weed control at 250 g/ha [12]: 0%
3 | Cc1cc(C(F)(F)F)ccc1NC(=O)[C@H]1C(=O)N(C)C[C@@H]1c1ccc(C(F)(F)F)cc1 (racemic) [Compound 1411] | 0% | 0% | 0% | 0% | 0% | 0% | 0% | 0% | 0% | 0% | 0% | 0% | 0% | 0% | 0% | 0% | 0% | 0% | 0% | 0% | pest or weed control at 250 g/ha [7]: 0%; plant injury at 15.625 g/ha [8]: 0%; plant injury at 62.5 g/ha [8]: 0%; plant injury at 250 g/ha [8]: 0%; pest or weed control at 15.625 g/ha [9]: 0%; pest or weed control at 62.5 g/ha [9]: 0%; pest or weed control at 250 g/ha [9]: 0%; pest or weed control at 15.625 g/ha [10]: 0%; pest or weed control at 62.5 g/ha [10]: 0%; pest or weed control at 250 g/ha [10]: 0%; pest or weed control at 15.625 g/ha [11]: 0%; pest or weed control at 62.5 g/ha [11]: 0%; pest or weed control at 250 g/ha [11]: 0%; pest or weed control at 15.625 g/ha [12]: 0%; pest or weed control at 62.5 g/ha [12]: 0%; pest or weed control at 250 g/ha [12]: 0%
